What was measured:
[1] = Drug uptake in human HepG2 cells with ASGPR overexpression assessed as fold increase in intracellular uptake; format: ADME, cell-based
[2] = Cytoprotective activity against Down syndrome patient-derived human Detroit 532 cells assessed as increase in mitochondrial membrane potential at 10 uM incubated for 3 days by JC-1 staining based fluorescence microscopy; format: functional; settings: time 3 day
Mus musculus = experiment: Antidiabetic activity in high fat diet-induced obese db/db mouse assessed as reduction in total lipid concentration at 30 mg/kg,ip administered for 2 weeks; format: functional; parameters: scale not given: the % may be the effect or the level left

| fold change (FC) [1] | SMILES | Activity (Mus musculus) [%] | also measured |
| --- | --- | --- | --- |
| 16 | CC(=O)N[C@@H]1[C@@H](O)[C@@H](O)[C@@H](CO)O[C@@H]1O | – | – |
| – | CC(=O)N[C@@H](CSc1nc2c(=O)[nH]c(N)nc2n1Cc1ccc(F)cc1)C(=O)NCCCOCCOCCOCCCCC(=O)C(=O)c1c(-c2ccccc2)[nH]c2ccccc12 | – | Activity [2]: 50% |
| 2 | N[C@@H](COC1O[C@H](CCP(=O)(O)O)[C@@H](O)[C@H](O)[C@@H]1O)C(=O)O (stereo not given in full) | – | – |
| – | O=C1C(=Cc2cc(Br)c(O)c(Br)c2)c2cc(I)ccc2N1CCCCCCCCCCCOc1ccc2ccccc2c1/N=N/c1ccc(/N=N/c2ccccc2)cc1 | 62 | – |
| – | O=c1cc(-c2ccccc2)c2c(OCCCCCCCCCCOc3ccc4ccccc4c3/N=N/c3ccc(/N=N/c4ccccc4)cc3)cc(O)cc2o1 | 62 | – |
